Data: patent publication US7435822B2, “3-(diheteroarylmethylene)-8-azabicyclo[3.2.1]octane and 3-((aryl)(heteroaryl)methylene)-8-azabicyclo[3.2.1]octane derivatives” (Janssen Pharmaceutica N.V., priority 2004, dated 2008)
Like-named read-outs stand apart in the source and are kept apart here.

Experiments:
δ-opioid receptor = molecular target: T1, δ-opioid receptor (Rattus norvegicus, UniProt P33533); test: Rat brain δ-opioid receptor binding assay; conditions: for μ/δ (ratio of the μ-opioid receptor binding to the δ-opioid receptor binding): ratio of Ki μ to Ki δ, rat brain
T1 construct: the forebrains are homogenized in Tris buffer in a Teflon®-glass homogenizer; from tissue; host or cells: rat (male Wistar) forebrain, particulate membrane preparation
Protocol: Rat Brain δ-Opioid Receptor Binding Assay
Male, Wistar rats (150-250 g, VAF, Charles River, Kingston, N.Y.) are killed by cervical dislocation, and their brains removed and placed immediately in ice cold Tris HCl buffer (50 mM, pH 7.4). The forebrains are separated from the remainder of the brain by a coronal transection, beginning dorsally at the colliculi and passing ventrally through the midbrain-pontine junction. After dissection, the forebrains are homogenized in Tris buffer in a Teflon®-glass homogenizer. The homogenate is diluted to a concentration of 1 g of forebrain tissue per 100 mL Tris buffer and centrifuged at 39,000×G for 10 min. The pellet is resuspended in the same volume of Tris buffer with several brief pulses from a Polytron homogenizer. This particulate preparation is used for the δ-opioid binding assays. […] The tubes and filters are rinsed three times with 4 mL of 10 mM HEPES (pH 7.4), and the radioactivity associated with the filter circles determined using Formula 989 scintillation fluid (New England Nuclear, Boston, Mass.) in a scintillation counter.
(§1) The data are used to calculate either the % inhibition compared to control binding (when only a single concentration of test compound is evaluated) or a Ki value (when a range of concentrations is tested).
% Inhibition was calculated as follows: […]
Ki value is calculated using the LIGAND (Munson, P. J. and Rodbard, D., Anal. Biochem. 107: 220-239,1980) data analysis program.

μ-opioid receptor = molecular target: T2, μ-opioid receptor (Rattus norvegicus, UniProt P33535); test: Rat brain μ-opioid receptor binding assay
T2 construct: the forebrains are homogenized in Tris buffer in a Teflon®-glass homogenizer; from tissue; host or cells: rat (male Wistar) forebrain, particulate membrane preparation
Protocol: Rat Brain μ-Opioid Receptor Binding Assay
Male, Wistar rats (150-250 g, VAF, Charles River, Kingston, N.Y.) are killed by cervical dislocation and their brains removed and placed immediately in ice cold Tris HCl buffer (50 mM, pH 7.4). The forebrains are separated from the remainder of the brain by a coronal transection, beginning dorsally at the colliculi and passing ventrally through the midbrain-pontine junction. After dissection, the forebrains are homogenized in Tris buffer in a Teflon®-glass homogenizer. The homogenate is diluted to a concentration of 1 g of forebrain tissue per 100 mL Tris buffer and centrifuged at 39,000×G for 10 min. The pellet is resuspended in the same volume of Tris buffer with several brief pulses from a Polytron homogenizer. This particulate preparation is used for the μ-opioid binding assays.
as §1
% Inhibition is calculated as follows: […]

[1] = rat forebrain particulate preparation, [3H]DAMGO, 25° C., read-out: Ki (nM) μ
[2] = rat forebrain particulate preparation, [3H]DPDPE, 25° C., read-out: Ki (nM) δ

T2 sequence (P33535 whole entry): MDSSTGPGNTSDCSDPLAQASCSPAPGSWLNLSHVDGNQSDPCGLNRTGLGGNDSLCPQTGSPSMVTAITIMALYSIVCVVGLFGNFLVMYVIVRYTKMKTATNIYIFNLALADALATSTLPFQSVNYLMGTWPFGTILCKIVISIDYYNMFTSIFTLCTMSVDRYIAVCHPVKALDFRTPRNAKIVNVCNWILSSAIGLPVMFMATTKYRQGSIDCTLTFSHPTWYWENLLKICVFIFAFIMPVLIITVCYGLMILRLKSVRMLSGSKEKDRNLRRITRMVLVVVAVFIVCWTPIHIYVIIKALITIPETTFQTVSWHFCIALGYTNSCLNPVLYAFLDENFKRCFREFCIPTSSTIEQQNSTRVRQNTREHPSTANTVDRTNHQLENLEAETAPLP
T1 sequence (P33533 whole entry): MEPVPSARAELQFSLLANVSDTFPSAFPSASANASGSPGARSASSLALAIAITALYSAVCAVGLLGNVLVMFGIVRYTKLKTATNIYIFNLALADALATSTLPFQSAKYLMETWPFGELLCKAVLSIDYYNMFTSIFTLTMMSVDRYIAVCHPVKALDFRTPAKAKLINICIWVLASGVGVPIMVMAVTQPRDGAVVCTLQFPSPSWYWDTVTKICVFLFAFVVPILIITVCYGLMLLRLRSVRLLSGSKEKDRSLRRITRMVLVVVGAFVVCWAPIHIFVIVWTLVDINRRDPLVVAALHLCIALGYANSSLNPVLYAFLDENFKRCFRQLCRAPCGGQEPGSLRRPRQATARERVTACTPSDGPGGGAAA

SMILES	Ki (δ-opioid receptor) [nM]	μ/δ (ratio of the μ-opioid receptor binding to the δ-opioid receptor binding) (δ-opioid receptor)	Ki (μ-opioid receptor; [1]) [nM]	Ki (δ-opioid receptor; [2]) [nM]	Ki (μ-opioid receptor) [nM]
c1ccc(C(=C2CC3CCC(C2)N3)c2ccsc2)cc1 [Example 2, 3-(Phenyl-thiophen-3-yl-methylene)-8-aza-bicyclo[3.2.1]octane]	68	–	–	–	–
CC(C)=CCN1C2CCC1CC(=C(c1ccccc1)c1ccsc1)C2 [Example 3, 8-(3-Methyl-but-2-enyl)-3-(phenyl-thiophen-3-yl-methylene)-8-aza-bicyclo[3.2.1]octane]	21.1	8.37	177	–	–
c1ccc(CCN2C3CCC2CC(=C(c2ccccc2)c2ccsc2)C3)cc1 [Example 4, 8-Phenethyl-3-(phenyl-thiophen-3-yl-methylene)-8-aza-bicyclo[3.2.1]octane]	–	0.29	265	903	–
Cc1ccccc1CN1C2CCC1CC(=C(c1ccccc1)c1ccsc1)C2 [Example 5, 8-(2-Methyl-benzyl)-3-(phenyl-thiophen-3-yl-methylene)-8-aza-bicyclo[3.2.1]octane]	–	21.28	4110	193	–
Clc1ccccc1CN1C2CCC1CC(=C(c1ccccc1)c1ccsc1)C2 [Example 6, 8-(2-Chloro-benzyl)-3-(phenyl-thiophen-3-yl-methylene)-8-aza-bicyclo[3.2.1]octane]	–	–	1310	229	–
c1ccc(C(=C2CC3CCC(C2)N3Cc2cccs2)c2ccsc2)cc1 [Example 7, 3-(Phenyl-thiophen-3-yl-methylene)-8-thiophen-2-ylmethyl-8-aza-bicyclo[3.2.1]octane]	62.6	6.69	418	–	–
Cc1ccsc1CN1C2CCC1CC(=C(c1ccccc1)c1ccsc1)C2 [Example 8, 8-(3-Methyl-thiophen-2-ylmethyl)-3-(phenyl-thiophen-3-yl-methylene)-8-aza-bicyclo[3.2.1]octane]	38.3	–	–	–	–
Cc1ccc(CN2C3CCC2CC(=C(c2ccccc2)c2ccsc2)C3)s1 [Example 9, 8-(5-Methyl-thiophen-2-ylmethyl)-3-(phenyl-thiophen-3-yl-methylene)-8-aza-bicyclo[3.2.1]octane]	38.8	10.66	413	–	–
Oc1cccc(C(=C2CC3CCC(C2)N3)c2ccsc2)c1 [Example 20, 3-[(8-Aza-bicyclo[3.2.1]oct-3-ylidene)-thiophen-3-yl-methyl]-phenol]	6.27	3.93	–	–	24.7
CC(C)=CCN1C2CCC1CC(=C(c1ccsc1)c1cccc(O)c1)C2 [Example 21, 3-{[8-(3-Methyl-but-2-enyl)-8-aza-bicyclo[3.2.1]oct-3-ylidene]-thiophen-3-yl-methyl}-phenol]	0.91	7.8	–	–	7.1
C=CCN1C2CCC1CC(=C(c1ccsc1)c1cccc(O)c1)C2 [Example 22, 3-[(8-Allyl-8-aza-bicyclo[3.2.1]oct-3-ylidene)-thiophen-3-yl-methyl]-phenol]	1.69	15.6	–	–	26
Oc1cccc(C(=C2CC3CCC(C2)N3CCc2ccccc2)c2ccsc2)c1 [Example 23, 3-[(8-Phenethyl-8-aza-bicyclo[3.2.1]oct-3-ylidene)-thiophen-3-yl-methyl]-phenol]	–	–	–	437	37
Cc1ccccc1CN1C2CCC1CC(=C(c1ccsc1)c1cccc(O)c1)C2 [Example 24]	5.96	8.15	–	–	48.6
Oc1cccc(C(=C2CC3CCC(C2)N3Cc2ccccc2Cl)c2ccsc2)c1 [Example 25, 3-{[8-(2-Chloro-benzyl)-8-aza-bicyclo[3.2.1]oct-3-ylidene]-thiophen-3-yl-methyl}-phenol]	1.69	20.22	–	–	34.2
Oc1cccc(C(=C2CC3CCC(C2)N3Cc2cccs2)c2ccsc2)c1 [Example 26, 3-[Thiophen-3-yl-(8-thiophen-2-ylmethyl-8-aza-bicyclo[3.2.1]oct-3-ylidene)-methyl]-phenol]	0.17	31.78	–	–	5.4
Cc1ccsc1CN1C2CCC1CC(=C(c1ccsc1)c1cccc(O)c1)C2 [Example 27, 3-{[8-(3-Methyl-thiophen-2-ylmethyl)-8-aza-bicyclo[3.2.1]oct-3-ylidene]-thiophen-3-yl-methyl}-phenol]	5.85	5.20	–	–	30.4
Cc1ccc(CN2C3CCC2CC(=C(c2ccsc2)c2cccc(O)c2)C3)s1 [Example 28, 3-{[8-(5-Methyl-thiophen-2-ylmethyl)-8-aza-bicyclo[3.2.1]oct-3-ylidene]-thiophen-3-yl-methyl}-phenol]	1.65	7.65	–	–	12.6
CC(C)=CCN1C2CCC1CC(=C(c1ccc(O)cc1)c1ccsc1)C2 [Example 38, 4-{[8-(3-Methyl-but-2-enyl)-8-aza-bicyclo[3.2.1]oct-3-ylidene]-thiophen-3-yl-methyl}-phenol]	5.37	17.3	–	–	93
Oc1ccc(C(=C2CC3CCC(C2)N3CCc2ccccc2)c2ccsc2)cc1 [Example 39]	397	0.42	–	–	166
Cc1ccccc1CN1C2CCC1CC(=C(c1ccc(O)cc1)c1ccsc1)C2 [Example 40, 4-{[8-(2-Methyl-benzyl)-8-aza-bicyclo[3.2.1]oct-3-ylidene]-thiophen-3-yl-methyl}-phenol]	35.7	1.82	–	–	64.8
Oc1ccc(C(=C2CC3CCC(C2)N3Cc2ccccc2Cl)c2ccsc2)cc1 [Example 41, 4-{[8-(2-Chloro-benzyl)-8-aza-bicyclo[3.2.1]oct-3-ylidene]-thiophen-3-yl-methyl}phenol]	12.5	2.91	–	–	36.5
Oc1ccc(C(=C2CC3CCC(C2)N3Cc2cccs2)c2ccsc2)cc1 [Example 42, 4-[Thiophen-3-yl-(8-thiophen-2-ylmethyl-8-aza-bicyclo[3.2.1]oct-3-ylidene) -methyl]phenol]	2.92	30.54	–	–	89.2
Cc1ccsc1CN1C2CCC1CC(=C(c1ccc(O)cc1)c1ccsc1)C2 [Example 43, 4-{[8-(3-Methyl-thiophen-2-ylmethyl)-8-aza-bicyclo[3.2.1]oct-3-ylidene]-thiophen-3-yl-methyl}-phenol]	31.4	5.94	187	–	–
Cc1ccc(CN2C3CCC2CC(=C(c2ccc(O)cc2)c2ccsc2)C3)s1 [Example 44, 4-{[8-(5-Methyl-thiophen-2-ylmethyl)-8-aza-bicyclo[3.2.1]oct-3-ylidene]-thiophen-3-yl-methyl}-phenol]	9.04	8.33	–	–	75.2
